The numbers were not newly measured in patent publication EP0501250A1, “Fucose-marked batracylin derivatives” (BAYER AG, priority 1991, dated 1992), which cites them from elsewhere.

The conditions of data set [1]: prior-art statement.
The next data set deals with Colon-38-Modell. Particulars: Colon-38-Modell an der Maus.

Turning to `Nc1ccc2c(c1)CN1C(=O)c3ccccc3C1=N2` [Batracylin], the “Löslichkeit in wasserhaltigen Lösungsmitteln” value in data set [1] is “geringe Löslichkeit”. For the same compound, the Antitumorwirkung entry in the data set on Colon-38-Modell was “ausgezeichnete Antitumorwirkung”.
